Laboratory results taken from article PMC11111636 (EJNMMI Radiopharmacy and Chemistry, 2024).

Columns and labels:
U2OS.SSTR2 cells = experiment: Uptake/internalization studies in U2OS.SSTR2 cells; assay type: cell-based, human
Method: Cells were seeded in 6-well plates 24 h before the experiment (7 × 10^5 cells/well). […] The membrane-bound fraction was collected by incubating cells with an acid buffer (50 mM glycine, 100 mM NaCl, pH 2.8) for 10 min at rt. The internalized fraction was determined by lysing the cells with 1 M NaOH for 5 min at rt. Both fractions were measured in a gamma counter, and data were analyzed in GraphPad Prism v9 and expressed as percentage of added dose.

[1] = Ex vivo biodistribution in H69-tumor bearing mice; details: mouse, in vivo
Method: (§1) Six-week‐old female Balb/c nu/nu‐specific mice (Janvier Labs, Le Genest‐Saint‐Isle, France) were housed in individually ventilated cages (4 mice/cage). Upon arrival, mice were acclimated for one week, with access to food and water ad libitum. Mice were subcutaneously inoculated on the right shoulder with NCI-H69 cells (5 × 10^6 cells) suspended in 100 μL of 1/3 Matrigel (Corning Inc.; Corning, NY, USA) and 2/3 Hank’s balanced salt solution (Gibco; Paisley, UK). NCI-H69 xenografts were allowed to grow for 2 weeks.
(§2) At 3 selected time points (1, 4 and 24 h; n = 4) p.i., blood was collected via retro-orbital puncture under isoflurane/O2 anesthesia, after which the mice were sacrificed via cervical dislocation. The tumor and organs of interest (heart, lungs, liver, spleen, stomach, large intestine, small intestine, pancreas, kidneys, muscle, skin, bone) were excised, washed in PBS and blotted dry. […] To determine the total injected radioactivity per animal, a calibration curve with indium-111 was established using the gamma counter. The percentage of injected dose per gram (% ID/g) was determined for each tissue and corrected for both the injected activity and % ID present at the injection site (the tail). Then, the tumor and the organs were placed in a petri dish and ex vivo optical imaging was performed with the IVIS Spectrum system (Perkin Elmer, Waltham, MA, USA) using the following settings for all measurements: FOV 19.5 cm, medium binning, f2, 60 s exposure with an excitation/emission filter of 646 nm/662 nm. Living Image version 4.5.2 software (Perkin Elmer) was used to perform data analysis by drawing regions of interest around the organ/tissue to quantify the radiant efficiency {(photons/second/cm^2/steradian)/(μW/cm^2)}.

[2] = test system: H69-xenograft Balb/c nu/nu mice; experiment: Ex vivo biodistribution in H69-tumor bearing mice; details: for Uptake in Tumor: i.v., n = 4
Method: as §1, §2

C[C@@H](O)[C@H](NC(=O)[C@@H]1CSSC[C@H](NC(=O)[C@@H](Cc2ccccc2)NC(=O)CN2CCN(CC(=O)O)CCN(CC(=O)O)CCN(CC(=O)O)CC2)C(=O)N[C@@H](Cc2ccc(O)cc2)C(=O)N[C@H](Cc2c[nH]c3ccccc23)C(=O)N[C@@H](CCCCN)C(=O)N[C@@H]([C@@H](C)O)C(=O)N1)C(=O)O [[^111In]In-DOTA-TATE, metal not drawn, reference compound]
Internalized fraction of radioactivity (U2OS.SSTR2 cells; 10^-9 M, 90 min, 37 °C): 94%
Total uptake (U2OS.SSTR2 cells; 10^-9 M, 90 min, 37 °C, % of added dose per 1,000,000 cells, n = 3): 46.22 ± 4.58 % AD
Cell uptake with excess of unlabeled DOTA-TATE (U2OS.SSTR2 cells; 50-fold excess DOTA-TATE): almost completely blocked
tissue uptake at 4 h ([1]; Uptake in Intestines, 4 h block (co-injected 50 nmol DOTA-TATE), n = 4): 0.57 ± 0.35 %ID/g
tissue uptake at 4 h ([1]; Uptake in Kidneys, 4 h block (co-injected 50 nmol DOTA-TATE), n = 4): 7.75 ± 1.03 %ID/g
tissue uptake at 4 h ([1]; Uptake in Liver, 4 h block (co-injected 50 nmol DOTA-TATE), n = 4): 0.15 ± 0.08 %ID/g
tissue uptake at 4 h ([1]; Uptake in Skin, 4 h block (co-injected 50 nmol DOTA-TATE), n = 4): 0.28 ± 0.13 %ID/g
tissue uptake at 4 h ([1]; Uptake in Stomach, 4 h block (co-injected 50 nmol DOTA-TATE), n = 4): 0.1 ± 0.03 %ID/g
tissue uptake at 1 h ([1]; iv, Uptake in Blood, 1 h p.i., n = 4): 0.41 ± 0.12 %ID/g
tissue uptake at 24 h ([1]; iv, Uptake in Blood, 24 h p.i., n = 4): 0.04 ± 0.03 %ID/g
tissue uptake at 4 h ([1]; iv, Uptake in Bones, 4 h p.i., n = 4): 0.13 ± 0.03 %ID/g
tissue uptake at 24 h ([1]; iv, Uptake in Bones, 24 h p.i., n = 4): 0.14 ± 0.05 %ID/g
tissue uptake at 1 h ([1]; iv, Uptake in Heart, 1 h p.i., n = 4): 0.16 ± 0.08 %ID/g
tissue uptake at 4 h ([1]; iv, Uptake in Heart, 4 h p.i., n = 4): 0.04 %ID/g
tissue uptake at 1 h ([1]; iv, Uptake in Intestines, 1 h p.i., n = 4): 0.74 ± 0.3 %ID/g
tissue uptake at 4 h ([1]; iv, Uptake in Intestines, 4 h p.i., n = 4): 0.77 ± 0.24 %ID/g
tissue uptake at 24 h ([1]; iv, Uptake in Intestines, 24 h p.i., n = 4): 0.13 ± 0.01 %ID/g
tissue uptake at 1 h ([1]; iv, Uptake in Kidneys, 1 h p.i., n = 4): 12.2 ± 1.33 %ID/g
tissue uptake at 4 h ([1]; iv, Uptake in Kidneys, 4 h p.i., n = 4): 10.6 ± 0.39 %ID/g
tissue uptake at 24 h ([1]; iv, Uptake in Kidneys, 24 h p.i., n = 4): 6.93 ± 1.02 %ID/g
tissue uptake at 1 h ([1]; iv, Uptake in Liver, 1 h p.i., n = 4): 0.21 ± 0.03 %ID/g
tissue uptake at 4 h ([1]; iv, Uptake in Liver, 4 h p.i., n = 4): 0.16 ± 0.01 %ID/g
tissue uptake at 24 h ([1]; iv, Uptake in Liver, 24 h p.i., n = 4): 0.08 ± 0.01 %ID/g
tissue uptake at 1 h ([1]; iv, Uptake in Lungs, 1 h p.i., n = 4): 0.86 ± 0.09 %ID/g
tissue uptake at 4 h ([1]; iv, Uptake in Lungs, 4 h p.i., n = 4): 0.52 ± 0.13 %ID/g
tissue uptake at 4 h ([1]; iv, Uptake in Muscle, 4 h p.i., n = 4): 0.02 %ID/g
tissue uptake at 24 h ([1]; iv, Uptake in Muscle, 24 h p.i., n = 4): 0.01 ± 0.01 %ID/g
tissue uptake at 1 h ([1]; iv, Uptake in Pancreas, 1 h p.i., n = 4): 2.9 ± 0.6 %ID/g
tissue uptake at 4 h ([1]; iv, Uptake in Pancreas, 4 h p.i., n = 4): 1.3 ± 0.1 %ID/g
tissue uptake at 24 h ([1]; iv, Uptake in Pancreas, 24 h p.i., n = 4): 0.6 ± 0.05 %ID/g
tissue uptake at 1 h ([1]; iv, Uptake in Skin): 0.49 ± 0.26 %ID/g
tissue uptake at 4 h ([1]; iv, Uptake in Skin, 4 h p.i., n = 4): 0.29 ± 0.09 %ID/g
tissue uptake at 24 h ([1]; iv, Uptake in Skin, 24 h p.i., n = 4): 0.13 ± 0.02 %ID/g
tissue uptake at 24 h ([1]; iv, Uptake in Spleen): 0.11 ± 0.01 %ID/g
tissue uptake at 4 h ([1]; iv, Uptake in Spleen, 4 h p.i., n = 4): 0.13 ± 0.02 %ID/g
tissue uptake at 1 h ([1]; iv, Uptake in Stomach, 1 h p.i., n = 4): 1.84 ± 0.18 %ID/g
tissue uptake at 4 h ([1]; iv, Uptake in Stomach, 4 h p.i., n = 4): 1.23 ± 0.16 %ID/g
tissue uptake at 24 h ([1]; iv, Uptake in Stomach, 24 h p.i., n = 4): 0.51 ± 0.13 %ID/g
tissue uptake at 1 h ([1]; iv, Uptake in Tumor, 1 h p.i., n = 4): ~5 %ID/g
tissue uptake at 4 h ([1]; iv, Uptake in Tumor, 4 h p.i., n = 4): 5.47 ± 0.3 %ID/g
tissue uptake at 24 h ([1]; iv, Uptake in Tumor, 24 h p.i., n = 4): ~3 %ID/g
Uptake in Tumor ([2]; 1 h p.i.): 5.55 ± 1.31 % ID/g
Tumor uptake reduction by co-injection of an excess of DOTA-TATE ([2]; 4 h p.i., compared to the unblocked group): 98%
Uptake in Tumor ([2]; 24 h p.i.): 3.19 ± 0.29 % ID/g
